Assay [1] concerns secretion of the sebaceous glands. The note with it: known additives of U.S. Pat. No. 4,331,655 / German Patent Application 29 26 267; cited from earlier work.
Assay [2] deals with brown skin surface lipids of the rats. Nature of the assay: Rat skin browning test for antiseborrheic (sebosuppressive) effect, visual assessment of shaved back. The class given is in vivo, male Wistar rats. The settings on record: topical; for Evaluation of sebosuppressive effects, evaluation method 1 (examiners recognizing the treated side) / Evaluation of sebosuppressive effects, evaluation method 2 (difference between righthand and lefthand side) / Evaluation of sebosuppressive effects, evaluation method 3 (difference in intensity of brown shades vs control animals): once daily for a total of 9 days over 14 days; for Sebum reduction: points difference / points of control group. An excerpt:
The antiseborrheic effect was closely studied using the animal tests described in the following: The test animals were male Wistar rats having a body weight of 220 to 230 g. The degree of browning on the shaved back of the rats was visually assessed. Browning is produced by the brown skin surface lipids of the rats. This test is based on the observation that young male and female rats washed with surfactant solution or with a lipid solvent and also male rats systematically treated with oestrogen have only the normal light, pick-colored skin after shaving. At the same time, only comparatively very small quantities of lipids can be extracted from shaved hairs. In order to assess effectiveness, the test substances in solution in alcohol were each brushed onto half the back of 6 rats. The other half was only treated with the solvent minus active substances. Over the test period of 14 days, the test substances were applied once daily for a total of 9 days. A group of 6 rats which remained completely untreated was used for further control. At the end of the test, the animals were shaved on their back and sides and were visually assessed independently by an examination panel of 6 people under double blind conditions. The first criterion evaluated was whether the majority of examiners correctly recognized the treated side, differentiation being carried out as follows: The second criterion evaluated was the difference between the righthand side and the lefthand side, each examiner having to award 1 point per animal on the following basis: Significant differences between the untreated and treated sides in the second method of evaluation indicated the local effectiveness of a substance. The third criterion evaluated was the difference in intensity between the shades of brown using the following scale: In the third method of evaluation, the total point differences are compared between the untreated control animals and the treated and untreated sides of the test animals, significant differences between the control animals and the treated side of the test animals again indicating the effectiveness of a substance. There is generally also a distinct difference between the untreated and treated sides of the same test animals. However, this difference is not always as clear as that between the control animals and the treated sides, for which there may be various reasons, such as mechanical transfer of substance from one side to the other or solvent influence. The following scheme was used for differentiating the effects according to evaluation methods 2 and 3: The sebum reduction is calculated from the points difference by working out the quotient between the points difference ΔP and the number of points for the control group Pk, and expressing the value obtained in percent. [formula] The benzyl alcohol derivatives were applied in the manner described in concentrations of 0.5 and 1.0% in alcohol/acetone (1:1).

Regarding `CC(=O)OCC=C(C)CCC=C(C)CCC=C(C)C` [3,7,11-tri:methyl-2,6,10-dodecatri:en-1-ol acetate], the antiseborrheic effect entry in assay [1] was “only a very weak antiseborrheic effect”.
Regarding `CCOCC=C(C)CCC=C(C)CCC=C(C)C` [3,7,11-tri:methyl-2,6,10-dodecatri:en-1-ol ethyl ether], the antiseborrheic effect result in assay [1] was “only a very weak antiseborrheic effect”.
Take `CCCCCCCCc1ccc(CO)cc1` [A, 4-octylbenzyl alcohol]: in assay [2] (0.5% in alcohol/acetone (1:1)), the “Evaluation of sebosuppressive effects, evaluation method 1 (examiners recognizing the treated side)” value was “++ (100%)”; the “Evaluation of sebosuppressive effects, evaluation method 2 (difference between righthand and lefthand side)” value was “++ (very large (≥99.9% probability))”; the “Evaluation of sebosuppressive effects, evaluation method 3 (difference in intensity of brown shades vs control animals)” value is “++ (very large (≥99.9% probability))”; the Sebum reduction is recorded as 94%.
As for `CCCCCCCCCCc1ccc(CO)cc1` [B, 4-decylbenzyl alcohol], in assay [2] (0.5% in alcohol/acetone (1:1)), the “Evaluation of sebosuppressive effects, evaluation method 1 (examiners recognizing the treated side)” value is recorded as “++ (100%)”; the “Evaluation of sebosuppressive effects, evaluation method 2 (difference between righthand and lefthand side)” value was “++ (very large (≥99.9% probability))”; the “Evaluation of sebosuppressive effects, evaluation method 3 (difference in intensity of brown shades vs control animals)” value was “++ (very large (≥99.9% probability))”; the Sebum reduction turned out to be 95%.
In the case of `OCc1ccccc1` [Benzyl alcohol], in assay [2] (1.0% in alcohol/acetone (1:1)), the “Evaluation of sebosuppressive effects, evaluation method 1 (examiners recognizing the treated side)” value was 0 (≥50%); the “Evaluation of sebosuppressive effects, evaluation method 2 (difference between righthand and lefthand side)” value was 0 (minimal (<95% probability)); the “Evaluation of sebosuppressive effects, evaluation method 3 (difference in intensity of brown shades vs control animals)” value was 0 (minimal (<95% probability)); the Sebum reduction turned out to be 0%.
For `CCCCCCCCCCCCc1ccc(CO)cc1` [C, 4-dodecylbenzyl alcohol], in assay [2] (0.5% in alcohol/acetone (1:1)), the “Evaluation of sebosuppressive effects, evaluation method 1 (examiners recognizing the treated side)” value is “++ (100%)”; the “Evaluation of sebosuppressive effects, evaluation method 2 (difference between righthand and lefthand side)” value is recorded as “++ (very large (≥99.9% probability))”; the “Evaluation of sebosuppressive effects, evaluation method 3 (difference in intensity of brown shades vs control animals)” value is “++ (very large (≥99.9% probability))”; the Sebum reduction was determined as 32%.
For `CCCCCCCCCCOCc1ccc(CO)cc1` [D, 4-decyloxymethylbenzyl alcohol], in assay [2] (0.5% in alcohol/acetone (1:1)), the “Evaluation of sebosuppressive effects, evaluation method 1 (examiners recognizing the treated side)” value is “++ (100%)”; the “Evaluation of sebosuppressive effects, evaluation method 2 (difference between righthand and lefthand side)” value is “++ (very large (≥99.9% probability))”; the “Evaluation of sebosuppressive effects, evaluation method 3 (difference in intensity of brown shades vs control animals)” value was “++ (very large (≥99.9% probability))”; the Sebum reduction worked out at 82%.
With `OCc1ccc(-c2ccccc2)cc1` [E, 4-phenylbenzyl alcohol], in assay [2] (0.5% in alcohol/acetone (1:1)), the “Evaluation of sebosuppressive effects, evaluation method 1 (examiners recognizing the treated side)” value is “++ (100%)”; the “Evaluation of sebosuppressive effects, evaluation method 2 (difference between righthand and lefthand side)” value was “++ (very large (≥99.9% probability))”; the “Evaluation of sebosuppressive effects, evaluation method 3 (difference in intensity of brown shades vs control animals)” value is on record as “++ (very large (≥99.9% probability))”; the Sebum reduction is given as 72%.
For the compound `CC(C)(C)c1ccc(CO)cc1` [F, 4-tert.-butylbenzyl alcohol], in assay [2] (1.0% in alcohol/acetone (1:1)), the “Evaluation of sebosuppressive effects, evaluation method 1 (examiners recognizing the treated side)” value is reported as “++ (100%)”; the “Evaluation of sebosuppressive effects, evaluation method 2 (difference between righthand and lefthand side)” value is reported as “++ (very large (≥99.9% probability))”; the “Evaluation of sebosuppressive effects, evaluation method 3 (difference in intensity of brown shades vs control animals)” value is recorded as “++ (very large (≥99.9% probability))”; the Sebum reduction is on record as 56%.

Source of the values: patent US4613622A, “Sebosuppressive preparations containing benzyl alcohol derivatives” (Henkel Kommanditgesellschaft auf Aktien, priority 1983, dated 1986).
